{"source": "patent US5385909A", "about": "“Heterocyclic esters of rapamycin” (American Home Products Corporation, priority 1993, dated 1995)", "key": {"heart allograft": {"test_system": "heart allograft", "test": "Heterotropic heart allograft standard pharmacological test procedure", "assay_type": "in vivo, BN rat neonate donors, male Lewis rat recipients", "conditions": "300 μg/day, i.p.; untreated rejected in about 9-10 days", "experimental": "(§1) Immunosuppressive activity for representative compounds of this invention was evaluated in an in vitro standard pharmacological test procedure to measure lymphocyte proliferation (LAF) and in three in vivo standard pharmacological test procedures. The pinch skin graft test procedure measures the immunosuppressive activity of the compound tested as well as the ability of the compound tested to inhibit or treat transplant rejection. The adjuvant arthritis standard pharmacological test procedure, which measures the ability of the compound tested to inhibit immune mediated inflammation. The adjuvant arthritis test procedure is a standard pharmacological test procedure for rheumatoid arthritis. Representative compounds of this invention were also evaluated in a heart allograft standard pharmacological test procedure which measures immunosuppressive activity of the compound tested as well as the ability of the compound tested to inhibit or treat transplant rejection. The procedures for these standard pharmacological test procedures are provided below.\nThe ability of the compounds of this invention to induce immunosuppression and inhibit or treat transplantation rejection was evaluated in a heterotropic heart allograft standard pharmacological test procedure that emulates transplantation rejection that occurs in humans. The following briefly describes the procedure that was used. […]"}, "[1]": {"test_system": "adjuvant arthritis, uninjected (left) hind paw inflammation", "test": "Adjuvant arthritis standard pharmacological test procedure", "assay_type": "in vivo, male Wistar Lewis rats", "conditions": "2 mg/kg, oral, uninjected paw at day 16; for Percent change in adjuvant arthritis versus control: 7 doses day 0-14, more negative = more potent", "experimental": "as §1\nThe adjuvant arthritis standard pharmacological test procedure measures the ability of test compounds to prevent immune mediated inflammation and inhibit or treat rheumatoid arthritis. The following briefly describes the test procedure used. A group of rats (male inbread Wistar Lewis rats) are pre-treated with the compound to be tested (1 h prior to antigen) and then injected with Freud's Complete Adjuvant (FCA) in the right hind paw to induce arthritis. The rats are then orally dosed on a Monday, Wednesday, Friday schedule from day 0-14 for a total of 7 doses. Both hind paws are measured on days 16, 23, and 30. The difference in paw volume (mL) from day 16 to day 0 is determined and a percent change from control is obtained. […] The right hind paw inflammation, on the other hand, is caused by nonspecific inflammation. Compounds were tested at a dose of 2 mg/kg."}, "pinch skin graft": {"test_system": "pinch skin graft", "test": "Pinch skin graft survival test procedure", "assay_type": "in vivo, male BALB/c donors, male C3 H(H-2K) recipients (mice)", "conditions": "4 mg/kg; intraperitoneally or orally; untreated grafts usually rejected within 6-7 days", "experimental": "as §1\nRepresentative compounds of this invention were also evaluated in an in vivo test procedure designed to determine the survival time of pinch skin graft from male BALB/c donors transplanted to male C3 H(H-2K) recipients. The method is adapted from Billingham R. E. and Medawar P. B., J. Exp. Biol. 28:385-402, (1951). Briefly, a pinch skin graft from the donor was grafted on the dorsum of the recipient as a allograft, and an isograft was used as control in the same region. The recipients were treated with either varying concentrations of test compounds intraperitoneally or orally. Rapamycin was used as a test control. Untreated recipients serve as rejection control. The graft was monitored daily and observations were recorded until the graft became dry and formed a blackened scab. This was considered as the rejection day. The mean graft survival time (number of days±S.D.) of the drug treatment group was compared with the control group. […] Results are expressed as the mean survival time in days. Untreated (control) pinch skin grafts are usually rejected within 6-7 days. Compounds were tested using a dose of 4 mg/kg."}, "[2]": {"test_system": "lymphocyte proliferation (thymus cells of normal BALB/c mice)", "test": "Comitogen-induced thymocyte proliferation procedure (LAF)", "assay_type": "cell-based", "conditions": "Mus musculus, read-out: LAF IC50", "experimental": "as §1\nThe comitogen-induced thymocyte proliferation procedure (LAF) was used as an in vitro measure of the immunosuppressive effects of representative compounds. Briefly, cells from the thymus of normal BALB/c mice are cultured for 72 hours with PHA and IL-1 and pulsed with tritiated thymidine during the last six hours. Cells are cultured with and without various concentrations of rapamycin, cyclosporin A, or test compound. Cells are harvested and incorporated radioactivity is determined. Inhibition of lymphoproliferation is assessed as percent change in counts per minute from non-drug treated controls. For each compound evaluated, rapamycin was also evaluated for the purpose of comparison. An IC50 was obtained for each test compound as well as for rapamycin. […] The results obtained are provided as an IC50."}, "immunosuppression": {"test_system": "immunosuppression", "conditions": "cited from earlier work"}, "tumor": {"test_system": "tumor", "conditions": "alone or in combination with picibanil; cited from earlier work"}, "Candida albicans": {"test_system": "Candida albicans", "conditions": "in vitro and in vivo; cited from earlier work"}, "[3]": {"test_system": "adjuvant arthritis, a model for rheumatoid arthritis", "conditions": "in vivo; cited from earlier work"}, "[4]": {"test_system": "experimental allergic encephalomyelitis, a model for multiple sclerosis", "conditions": "in vivo; cited from earlier work"}, "[5]": {"test_system": "formation of IgE-like antibodies", "conditions": "in vivo; cited from earlier work"}, "[6]": {"conditions": "72 h culture with PHA and IL-1, tritiated thymidine incorporation"}}, "note": "Read-outs that look alike come from different tables or passages of the source.", "data": [{"smiles": "CO[C@H]1C[C@@H]2CC[C@@H](C)[C@@](O)(O2)C(=O)C(=O)N2CCCC[C@H]2C(=O)O[C@H]([C@H](C)C[C@@H]2CC[C@@H](OC(=O)c3cccnc3C)[C@H](OC)C2)CC(=O)[C@H](C)/C=C(\\C)[C@@H](O)[C@@H](OC)C(=O)[C@H](C)C[C@H](C)/C=C/C=C/C=C/1C", "note": "[Example 1, Rapamycin 42-ester with 2-methylnicotinic acid]", "values": [{"measurement": "Heart allograft survival (mean survival time)", "setting": "heart allograft", "value": 29.9, "unit": "days"}, {"measurement": "Percent change in adjuvant arthritis versus control", "setting": "[1]", "value": -88, "unit": "%"}, {"measurement": "Skin graft survival (mean survival time ± S.D.)", "setting": "pinch skin graft", "value": "11.2 ± 0.8", "unit": "days"}, {"measurement": "IC50", "setting": "[2]; [6]", "value": 1, "unit": "nM"}]}, {"smiles": "CO[C@H]1C[C@@H]2CC[C@@H](C)[C@@](O)(O2)C(=O)C(=O)N2CCCC[C@H]2C(=O)O[C@H]([C@H](C)C[C@@H]2CC[C@@H](OC(=O)c3cccnc3)[C@H](OC)C2)CC(=O)[C@H](C)/C=C(\\C)[C@@H](O)[C@@H](OC)C(=O)[C@H](C)C[C@H](C)/C=C/C=C/C=C/1C", "note": "[Example 2, Rapamycin 42-ester with nicotinic acid]", "values": [{"measurement": "Skin graft survival (mean survival time ± S.D.)", "setting": "pinch skin graft", "value": "9.60 ± 0.89", "unit": "days"}, {"measurement": "IC50", "setting": "[2]; [6]", "value": 0.17, "unit": "nM"}]}, {"smiles": "CO[C@H]1C[C@@H]2CC[C@@H](C)[C@@](O)(O2)C(=O)C(=O)N2CCCC[C@H]2C(=O)O[C@H]([C@H](C)C[C@@H]2CC[C@@H](OC(=O)c3ccc(C)nc3)[C@H](OC)C2)CC(=O)[C@H](C)/C=C(\\C)[C@@H](O)[C@@H](OC)C(=O)[C@H](C)C[C@H](C)/C=C/C=C/C=C/1C", "note": "[Example 3, Rapamycin 42-ester with 6-methylpyridine-3-carboxylic acid]", "values": [{"measurement": "Percent change in adjuvant arthritis versus control", "setting": "[1]", "value": -87, "unit": "%"}, {"measurement": "Skin graft survival (mean survival time ± S.D.)", "setting": "pinch skin graft", "value": "12.5 ± 0.58", "unit": "days"}, {"measurement": "IC50", "setting": "[2]; [6]", "value": 0.6, "unit": "nM"}]}, {"smiles": "CO[C@H]1C[C@@H]2CC[C@@H](C)[C@@](O)(O2)C(=O)C(=O)N2CCCC[C@H]2C(=O)O[C@H]([C@H](C)C[C@@H]2CC[C@@H](OC(=O)c3cnc(C)cn3)[C@H](OC)C2)CC(=O)[C@H](C)/C=C(\\C)[C@@H](O)[C@@H](OC)C(=O)[C@H](C)C[C@H](C)/C=C/C=C/C=C/1C", "note": "[Example 4, Rapamycin 42-ester with 5-methylpyrazine-2-carboxylic acid]", "values": [{"measurement": "Percent change in adjuvant arthritis versus control", "setting": "[1]", "value": -90, "unit": "%"}, {"measurement": "Skin graft survival (mean survival time ± S.D.)", "setting": "pinch skin graft", "value": "11.33 ± 0.82", "unit": "days"}, {"measurement": "IC50", "setting": "[2]; [6]", "value": 0.28, "unit": "nM"}]}, {"smiles": "C=CC[C@@H]1/C=C(\\C)C[C@H](C)C[C@H](OC)[C@H]2O[C@@](O)(C(=O)C(=O)N3CCCC[C@H]3C(=O)O[C@H](/C(C)=C/[C@@H]3CC[C@@H](O)[C@H](OC)C3)[C@H](C)[C@@H](O)CC1=O)[C@H](C)C[C@@H]2OC", "note": "[FK-506]", "values": [{"measurement": "effective as immunosuppressive agents", "setting": "immunosuppression", "value": "effective"}]}, {"smiles": "CO[C@H]1C[C@@H]2CC[C@@H](C)[C@@](O)(O2)C(=O)C(=O)N2CCCC[C@H]2C(=O)O[C@H]([C@H](C)C[C@@H]2CC[C@@H](O)[C@H](OC)C2)CC(=O)[C@H](C)/C=C(\\C)[C@@H](O)[C@@H](OC)C(=O)[C@H](C)C[C@H](C)/C=C/C=C/C=C/1C", "note": "[rapamycin]", "values": [{"measurement": "antitumor activity", "setting": "tumor", "value": "antitumor activity"}, {"measurement": "antifungal activity", "setting": "Candida albicans", "value": "antifungal activity, particularly against Candida albicans, both in vitro and in vivo"}, {"measurement": "effectiveness in adjuvant arthritis model", "setting": "[3]", "value": "effective"}, {"measurement": "less immune induced inflammation than control rats", "setting": "[1]", "value": "70-90%"}, {"measurement": "effectiveness in experimental allergic encephalomyelitis model", "setting": "[4]", "value": "effective"}, {"measurement": "inhibition of formation of IgE-like antibodies", "setting": "[5]", "value": "effectively inhibited"}, {"measurement": "IC50", "setting": "[2]; 72 h", "value": "0.5 to 1.9", "unit": "nM"}]}]}
